# Test results from patent US12624127B2, “Chitosan derivatives as antimicrobials and synergistic combinations thereof” (priority 2022, dated 2026).
# Assays:
# MDR A. baumannii (AB-1) = assay: Neutropenic lung infection model in BALB/c mice; type: in vivo, Acinetobacter baumannii; details: rifampicin 10 mg/kg alone, 24 h
# Description: Bacterial cultures of MDR . baumannii (AB-1) were prepared and used to infect 8-week-old female BALB/c mice. 10^8 CFU/mL of AB-1 (30 μL) was inhaled by the mouse to introduce the infection via the intranasal route. After 2 h of infection, a specific dosage of antibiotic (novobiocin or rifampicin, 10 mg/kg), 2,6-DAC (25 mg/kg) or the combination of antibiotic (novobiocin or rifampicin, 10 mg/kg) and 2,6-DAC (25 mg/kg) were administrated through the intranasal route for 2,6-DAC and through the intraperitoneal route for antibiotic. Mice euthanasian at indicated time points (24 h) was achieved by CO2 asphyxiation followed by cervical dislocation. For histopathological analysis, the lung was fixed in 10% neutral buffered formalin and embedded in paraffin. The paraffin-embedded sections were stained with H&E. The lung was recovered and counted for bacteria concentration.
# [1] = tested on: rabbit erythrocyte suspension; assay: Hemolytic activity test; type: cell-based; details: 78 μg/mL, 1 h
# Description: Fresh rabbit blood (5 mL) was washed three times with sterilized PBS and diluted to a final concentration of 5% v/v. A series concentration of 2,6-DAC and Gramicidin control were incubated with the prepared erythrocyte suspension for 1 h with shaking in a 96-well plate. The supernatant (80 μL) was aliquoted to a new plate after centrifugation at 1000 g for 10 min. The absorbance at 540 nm was recorded by the TECAN microplate reader. 0.1% Triton X-100 that can lyse red blood cells completely was used as the positive control (Op), and PBS was used as the negative control (On). The percentage of hemolysis was determined by the following equation: Hemolysis%=[(Ox−On)/(Op−On)]×100% Results and Discussion
# 3T3 cells = tested on: 3T3 cells
# Description: In a 96-well plate, 3T3 cells were co-cultured for 24 h at 37° C. with polymer (100 μg/mL or 200 μg/mL) at initial cell density of 1×10^5 cells per well. At the end of the incubation period, the culture medium was removed, each well was washed with PBS followed by the addition of MTT solution, and the plate was incubated for 4 h at 37° C. The MTT medium was then removed, 100 μL of DMSO was added to each well, the plate was shaken at 100 rpm for 15 min and the absorbance at 570 nm was measured with plate reader (BIO-RAD Benchmark Plus, US).
# [2] = set-up: species or system mice; details: mouse, in vivo, ip, 25 mg/kg
# Description: The biomarkers were determined before treatment (Day 0), and Day 1 and Day 7 after administration. The biomarkers of Day 0 were the untreated controls. The animal experiments were carried out in accordance to the Code of Practice for the Institutional Care and Use of Animals for Scientific Purposes and were approved by the Ethics Committee of Ningbo University.
compound,measurement,setting,value
CO[C@H]1/C=C/O[C@@]2(C)Oc3c(C)c(O)c4c(O)c(c(/C=N/N5CCN(C)CC5)c(O)c4c3C2=O)NC(=O)/C(C)=C\C=C\[C@H](C)[C@H](O)[C@@H](C)[C@@H](O)[C@@H](C)[C@H](OC(C)=O)[C@@H]1C [Rifampicin],"Reduction of lung bacteria, single agent",MDR A. baumannii (AB-1),around 1.6 log10
Gramicidin,Hemolysis,[1],100%
"2,6-Diamino Chitosan [Compound 5a]",Biocompatibility (in words),3T3 cells,good biocompatibility
same,Change in biomarkers of kidney and liver functions (in words),[2],did not cause a significant change
